Measurements taken from patent publication US20250171744A1, “METHODS OF REPROGRAMMING SOMATIC CELLS AND MATERIALS RELATED THERETO” (CITY OF HOPE, priority 2019, published 2025).
“Also recorded” adds a separate entry of the source.

Assays:
Type in all cases: cell-based, human
293T cells [1] = assay: Global DNA methylation, 5mC ELISA (FIG. 18); conditions: 500 nM MTX, 1 μM PTX; 7-days; vs untreated cells
Procedure: Equal amount of DNA (100 ng) was analyzed with 5mC enzyme-linked immunosorbent assay (ELISA) (EpiGentek). […] Error bars represent the standard error for at least three independent experiments and three technical replicates.
Global DNA methylation measurement Global 5-methylcytosine (5-mC) levels were quantified using the MethylFlash Methylated DNA Quantification Kits (Epigentek, Farmingdale, NY, USA). The DNA concentration was determined using the Qubit Assay (Thermo Fisher Scientific) according to the manufacturer's protocol. Briefly, 100 ng of DNA was used for incubation with both capture and detection antibodies using MethylFlash Methylated DNA Quantification Kit (Colorimetric) from Epigentek. Subsequently, measurements of the absorbance of the sample at 450 nm in a microplate spectrophotometer (BioTek Instruments, Winooski, VT, USA) were performed with the percentage of the whole genome 5-mC calculation according to manufacturer's instructions. Genomic methylation levels in study samples were expressed as percentage of 5-mC.
MTX and PTX are antifolates that inhibit enzymes (particularly thymidylate synthase and dihydrofolate reductase) involved in folate metabolism and purine and pyrimidine synthesis (100-103). […] Equal amount of gDNA (100 ng) was analyzed with 5mC enzyme-linked immunosorbent assay (ELISA) (EpiGentek).

[2] = system: Sox2 and Oct4 (stem cell markers); assay: qRT-PCR relative transcript levels of stem cell markers (FIG. 21A); conditions: cell line not given, vs control cells
Procedure: To validate microarray results, quantitative 2-step RT-PCR was performed. One microgram of total RNA was reverse transcribed to first-strand cDNA with the Qiagen cDNA Synthesis Kit (Qiagen), and this cDNA was subsequently used as a template for quantitative PCR with gene-specific primers. The ubiquitous β-actin gene served as a control for constitutive gene expression. The quantitative RT-PCR (qRT-PCR) reactions were performed using Power Sybr Green PCR Master Mix (Thermo Fisher Scientific) on a CFX96 Touch Real-Time PCR Detection System (Bio-Rad, Hercules, CA, USA). Relative expression levels (2^−ΔCt) were calculated according to the Livak and Schmittgen method (40). Expression levels of each gene were compared with the expression level of actin.

[3] = Cardiomyocyte differentiation, correlative immunostaining (FIG. 31); conditions: MTX Treated; vs H1 positive and untreated negative control
Procedure: (§1) MTX/PTX treated and SSEA4 positive cells were maintained on Matrigel-coated 6-well plates in mTeSR1 medium. To induce differentiation, cells with EB-like morphology were dissociated with Accutase (Invitrogen) at 37° C. for 5 minutes and then single cell suspension was seeded onto a Matrigel-coated cell-culture dish at 100,000 cell/cm^2 in mTeSR1 supplemented with 5 μM ROCK inhibitor (Y-27632) for 24 hours. The cells then were cultured in mTeSR1 medium, which was changed daily. Next, 8 μl of 36 mM CHIR99021 were added into 24 ml RPMI/B27-insulin medium to make 12 μM CHIR99021 RPMI/B27-insulin medium and 2-ml of this were added to each well after the old mTeSR1 medium was removed. Exactly 24 hours after adding CHIR, the medium was replaced with 2 ml room temperature RPMI/B27-insulin. The plate was put back into the 37° C., 5% CO2 incubator. 72 hours post addition of CHIR99021, 1 ml medium from each well was removed and the remaining 1-ml was supplemented with 1-ml RPMI/B27-insulin with 5 μM IWP2 (WNT pathway inhibitor). After 48 hours, the medium was replaced with fresh RPMI/B27-insulin and this was incubated at 37° C., 5% CO2 incubator. After this, every 2-days, the old medium was removed from each well of the 12-well plate and 2 ml/well room temperature RPMI/B27 medium was added and incubated at 37° C., 5% CO2. […]

293T cells [4] = assay: as above; conditions: MTX Treated; vs H1 positive and untreated negative control
Procedure: as §1

Compound | global DNA methylation (5mC content) (293T cells [1]) | relative transcripts level of Oct4 [2] | relative transcripts level of Sox2 [2] | cardiac muscle cells in the differentiation medium [3] | cardiac muscle cells in the differentiation medium (293T cells [4])
CN(Cc1cnc2nc(N)nc(N)c2n1)c1ccc(C(=O)N[C@@H](CCC(=O)O)C(=O)O)cc1 [MTX, methotrexate] | significantly lower levels of DNA methylation; also recorded: significant reduction in global DNA methylation | significantly higher | significantly higher | had cardiac muscle cells | had cardiac muscle cells
Nc1nc2[nH]cc(CCc3ccc(C(=O)N[C@@H](CCC(=O)O)C(=O)O)cc3)c2c(=O)[nH]1 [PTX, pemetrexed] | significantly lower levels of DNA methylation; also recorded: significant reduction in global DNA methylation |  |  |  | 
